Broadly, the AC50 is the midpoint of the concentration-response curve, whichever way the signal moves. A word on the EC50: it is the midpoint of the concentration-response curve.

Calls of active or inactive are those of the source.

For 6 compounds, AC50, EC50 and IC50 results are on record in ChEMBL document CHEMBL1201862, “PubChem BioAssay data set” (2004).

The target in assay [1] is T1, Replicative DNA helicase DnaB (Mycobacterium tuberculosis, UniProt P9WMR3).
T1 sequence (P9WMR3 whole entry): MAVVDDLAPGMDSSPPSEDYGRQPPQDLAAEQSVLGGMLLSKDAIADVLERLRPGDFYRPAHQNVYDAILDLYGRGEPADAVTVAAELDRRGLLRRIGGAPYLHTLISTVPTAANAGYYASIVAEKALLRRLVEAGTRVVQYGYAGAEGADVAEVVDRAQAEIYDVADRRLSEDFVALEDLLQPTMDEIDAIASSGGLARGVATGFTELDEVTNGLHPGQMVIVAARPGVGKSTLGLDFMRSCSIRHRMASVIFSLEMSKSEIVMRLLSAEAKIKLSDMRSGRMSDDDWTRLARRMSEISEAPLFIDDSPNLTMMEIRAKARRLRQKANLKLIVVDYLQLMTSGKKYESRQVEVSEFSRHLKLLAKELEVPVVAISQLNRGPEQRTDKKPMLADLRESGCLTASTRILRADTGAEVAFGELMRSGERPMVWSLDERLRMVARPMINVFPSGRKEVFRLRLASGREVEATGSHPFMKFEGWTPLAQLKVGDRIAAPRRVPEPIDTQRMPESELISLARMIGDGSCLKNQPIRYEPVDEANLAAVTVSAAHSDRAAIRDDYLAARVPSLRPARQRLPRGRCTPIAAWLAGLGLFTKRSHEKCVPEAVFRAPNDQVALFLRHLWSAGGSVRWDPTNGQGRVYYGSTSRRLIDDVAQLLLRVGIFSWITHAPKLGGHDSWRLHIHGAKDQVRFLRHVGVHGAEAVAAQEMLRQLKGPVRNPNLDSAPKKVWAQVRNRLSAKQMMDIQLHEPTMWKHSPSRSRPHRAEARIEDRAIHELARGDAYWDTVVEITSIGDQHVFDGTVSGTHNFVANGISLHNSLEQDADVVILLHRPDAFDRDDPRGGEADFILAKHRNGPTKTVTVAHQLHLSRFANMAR
The experiment in a line: DnaB intein splicing inhibitors, dose response, biochemical, cell-free fluorescence (AID 449749). Type of assay: functional.

The target in the next assay is T2, Protein RecA (Mycobacterium tuberculosis, UniProt P9WHJ3).
T2 sequence (P9WHJ3 whole entry): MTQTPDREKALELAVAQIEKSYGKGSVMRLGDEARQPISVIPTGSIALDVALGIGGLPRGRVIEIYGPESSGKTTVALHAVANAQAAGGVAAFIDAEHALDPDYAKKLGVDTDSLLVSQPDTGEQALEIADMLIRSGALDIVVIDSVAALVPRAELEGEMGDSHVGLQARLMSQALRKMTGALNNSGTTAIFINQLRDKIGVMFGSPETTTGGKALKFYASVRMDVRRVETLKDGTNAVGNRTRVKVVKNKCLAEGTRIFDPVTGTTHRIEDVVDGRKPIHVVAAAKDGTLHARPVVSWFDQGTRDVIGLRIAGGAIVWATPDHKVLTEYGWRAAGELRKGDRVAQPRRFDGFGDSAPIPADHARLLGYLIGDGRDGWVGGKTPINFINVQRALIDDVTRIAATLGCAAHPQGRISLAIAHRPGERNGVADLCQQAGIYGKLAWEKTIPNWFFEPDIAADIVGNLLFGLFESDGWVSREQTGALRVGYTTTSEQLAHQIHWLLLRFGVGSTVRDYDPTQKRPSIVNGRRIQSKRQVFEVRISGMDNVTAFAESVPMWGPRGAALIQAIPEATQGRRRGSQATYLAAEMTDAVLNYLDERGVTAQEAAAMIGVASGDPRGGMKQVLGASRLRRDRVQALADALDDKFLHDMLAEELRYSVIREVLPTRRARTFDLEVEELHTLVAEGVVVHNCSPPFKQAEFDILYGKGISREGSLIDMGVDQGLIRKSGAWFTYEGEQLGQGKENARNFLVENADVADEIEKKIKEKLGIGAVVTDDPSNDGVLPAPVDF
The experiment in a line: Fluorescence Cell-Free Homogeneous Dose Retest to Identify Inhibitors of RecA-Intein Splicing Activity. [Related pubchem assays (depositor defined):AID2097, AID2223, AID489010, AID492950]. Type of assay: functional.

Assay [2] concerns the target T3, Probable nicotinate-nucleotide adenylyltransferase (Staphylococcus aureus (strain N315), UniProt P65502). Format: functional, Staphylococcus aureus subsp. aureus N315.
Assay [3] addresses T3, Probable nicotinate-nucleotide adenylyltransferase. Type of assay: functional, Staphylococcus aureus subsp. aureus N315. Conditions: read-out: IC50_Mean.
Assay [4] concerns the target T4, Sentrin-specific protease 8 (Homo sapiens, UniProt Q96LD8).
T4 sequence (Q96LD8 whole entry): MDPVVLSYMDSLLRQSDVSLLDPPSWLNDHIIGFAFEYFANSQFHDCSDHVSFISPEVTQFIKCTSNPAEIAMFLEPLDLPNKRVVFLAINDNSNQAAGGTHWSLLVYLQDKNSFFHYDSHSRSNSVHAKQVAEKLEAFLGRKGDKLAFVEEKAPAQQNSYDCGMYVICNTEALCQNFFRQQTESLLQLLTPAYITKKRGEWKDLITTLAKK
Format: functional.

The target in assay [5] is T4, Sentrin-specific protease 8. Type of assay: functional. This is another data set of the same source.
Assay [6] in a line: ZM109 Env clade C HIV-1 fusion inhibitors, dose response, HeLa effector, CEM target cells, luciferase, cherry-pick (AID 652058). Format: functional, cell-based.
Assay [7] can be described thus: off-target signal loss in HeLa-CEM21 co-culture – HeLa F-luc CTL cells, cherry-picked, counter-screen for HIV-1 Env fusion inhibitor project, dose response (AID 652040).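 Also: potency for signal decrease marking cytotoxic or nonspecific inhibition.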 Type of assay: functional, cell-based.
Assay [8] can be described thus: inhibitors of clade B AD8 Env fusion, dose response, cell-based, cherry-pick (AID 652062).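 Also: luciferase signal from cell-cell fusion driven by HIV-1 clade B AD8 Env; potency is for inhibitors of fusion seen as a drop in luminescence.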 Type of assay: functional.
Assay [9] addresses T5, Histone-lysine N-methyltransferase NSD2 (Homo sapiens, UniProt O96028).
T5 sequence (O96028 whole entry): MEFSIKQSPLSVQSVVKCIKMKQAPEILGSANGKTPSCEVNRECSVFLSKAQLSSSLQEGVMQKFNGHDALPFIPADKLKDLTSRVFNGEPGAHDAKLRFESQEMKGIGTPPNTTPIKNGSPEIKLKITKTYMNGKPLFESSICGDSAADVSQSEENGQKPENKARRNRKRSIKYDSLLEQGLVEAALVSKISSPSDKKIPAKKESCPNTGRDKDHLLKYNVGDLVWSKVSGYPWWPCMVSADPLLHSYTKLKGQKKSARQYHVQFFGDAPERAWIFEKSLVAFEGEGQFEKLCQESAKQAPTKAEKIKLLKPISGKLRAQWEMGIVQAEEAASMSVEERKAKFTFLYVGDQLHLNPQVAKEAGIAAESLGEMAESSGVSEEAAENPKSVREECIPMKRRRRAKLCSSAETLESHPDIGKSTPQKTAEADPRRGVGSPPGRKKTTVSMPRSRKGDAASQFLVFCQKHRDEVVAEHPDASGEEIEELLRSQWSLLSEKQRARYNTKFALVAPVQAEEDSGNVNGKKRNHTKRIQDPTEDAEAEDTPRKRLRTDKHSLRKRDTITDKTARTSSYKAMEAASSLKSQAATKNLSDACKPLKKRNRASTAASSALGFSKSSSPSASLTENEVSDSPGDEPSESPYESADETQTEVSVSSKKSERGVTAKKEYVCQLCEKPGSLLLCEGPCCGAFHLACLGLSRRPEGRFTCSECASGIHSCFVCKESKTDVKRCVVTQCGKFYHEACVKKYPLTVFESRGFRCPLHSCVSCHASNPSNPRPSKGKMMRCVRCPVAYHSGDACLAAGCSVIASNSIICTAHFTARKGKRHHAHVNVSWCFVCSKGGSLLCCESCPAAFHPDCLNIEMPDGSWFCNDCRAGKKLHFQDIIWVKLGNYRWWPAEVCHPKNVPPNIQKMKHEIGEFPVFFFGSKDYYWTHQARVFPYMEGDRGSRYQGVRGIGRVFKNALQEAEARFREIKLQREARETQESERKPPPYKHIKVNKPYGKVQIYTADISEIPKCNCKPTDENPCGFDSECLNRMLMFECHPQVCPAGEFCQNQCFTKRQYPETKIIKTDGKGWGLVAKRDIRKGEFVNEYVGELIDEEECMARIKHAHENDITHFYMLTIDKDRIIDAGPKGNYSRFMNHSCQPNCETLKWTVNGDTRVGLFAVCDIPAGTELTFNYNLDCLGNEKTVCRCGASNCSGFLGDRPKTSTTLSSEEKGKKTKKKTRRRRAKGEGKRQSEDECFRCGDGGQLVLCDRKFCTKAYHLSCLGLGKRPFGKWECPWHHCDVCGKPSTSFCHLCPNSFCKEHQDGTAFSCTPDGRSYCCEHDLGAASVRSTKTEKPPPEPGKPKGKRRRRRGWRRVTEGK
Type of assay: biochemical.

The target in assay [10] is T6, RNA-binding protein pos-1 (Caenorhabditis elegans, UniProt G5EF15).
T6 sequence (G5EF15 whole entry): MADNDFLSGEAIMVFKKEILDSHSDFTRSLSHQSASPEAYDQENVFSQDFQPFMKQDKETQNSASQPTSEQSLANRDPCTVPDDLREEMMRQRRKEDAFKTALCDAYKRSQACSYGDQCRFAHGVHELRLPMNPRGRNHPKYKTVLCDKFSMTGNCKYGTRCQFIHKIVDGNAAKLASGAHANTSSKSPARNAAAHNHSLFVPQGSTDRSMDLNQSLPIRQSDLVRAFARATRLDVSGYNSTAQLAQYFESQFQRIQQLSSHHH
The experiment in a line: inhibitors of POS-1/mex-3 RNA binding, dose response, biochemical, fluorescence polarization (AID 1964).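 Also: purified POS-1 fused to maltose binding protein made in E. coli; potency of compounds blocking POS-1 binding to fluorescent RNA.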 For orientation: Fluorescence polarisation rises when a labelled molecule tumbles more slowly, as on binding a larger partner.

Assay [11] deals with T7, Zinc finger protein mex-5 (Caenorhabditis elegans, UniProt Q9XUB2).
T7 sequence (Q9XUB2 whole entry): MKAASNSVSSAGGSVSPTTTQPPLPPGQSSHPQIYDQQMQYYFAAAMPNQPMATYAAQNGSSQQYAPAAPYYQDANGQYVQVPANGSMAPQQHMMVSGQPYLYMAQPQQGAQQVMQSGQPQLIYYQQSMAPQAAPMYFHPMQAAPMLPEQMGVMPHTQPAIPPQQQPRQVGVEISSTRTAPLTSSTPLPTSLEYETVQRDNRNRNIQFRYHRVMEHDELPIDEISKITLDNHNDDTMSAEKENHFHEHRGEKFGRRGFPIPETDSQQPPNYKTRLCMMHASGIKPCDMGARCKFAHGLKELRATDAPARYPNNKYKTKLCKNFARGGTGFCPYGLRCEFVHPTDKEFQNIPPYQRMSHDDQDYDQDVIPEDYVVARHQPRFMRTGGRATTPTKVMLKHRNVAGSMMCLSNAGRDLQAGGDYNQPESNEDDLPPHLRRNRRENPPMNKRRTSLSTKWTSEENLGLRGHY
Put plainly: MEX-5/TCR-2 RNA interaction inhibitors, dose response, biochemical, C. elegans, fluorescence polarization (AID 1960).

Assay [12] is described as follows: inhibitors of HIV Env-driven cell fusion, dose response, cherry-pick (AID 652057). Type of assay: functional, cell-based.
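For IC50 Mean in this document: confirmatory dose-response retesting of NadD inhibitor hits first found in an ultra-high-throughput screen.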

T3 sequence (P65502 whole entry): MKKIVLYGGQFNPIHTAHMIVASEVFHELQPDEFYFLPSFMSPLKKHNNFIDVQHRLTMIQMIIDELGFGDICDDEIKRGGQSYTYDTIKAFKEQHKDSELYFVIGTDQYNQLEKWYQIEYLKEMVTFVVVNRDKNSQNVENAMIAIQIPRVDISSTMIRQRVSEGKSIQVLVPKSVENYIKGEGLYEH

For the compound `CC1=NN(c2ccc(C)c(C)c2)C(=O)C1C(c1cccc(O)c1)C1C(=O)N(c2ccc(C)c(C)c2)N=C1C` (stereo unspecified), the AC50 in [1] was 1.14 µM (active). For the same compound, the EC50 at Protein RecA was 0.468 µM (active). In addition, the IC50 in [2] is 6.63 µM (active); in assay [3], 15.1 µM (active); in [4] it was 7.94 µM (active); in assay [5], 14.7 µM (active).
Take `O=C(c1ccc(S(=O)(=O)Nc2ccc(F)cc2)cc1)N1CCN(C(=O)c2ccco2)CC1`: the AC50 was 10.4 µM (active) in [6], 24.4 µM (active) in assay [7] and 2.86 µM (active) in [8].
As to `CCOc1ccccc1NC(=O)CSc1nc(O)c2c(C(F)(F)F)cc(-c3cccs3)nc2n1`, the AC50 in [9] was > 20 µM (inactive).
With `CCCC1Nc2ccc(C(=O)O)cc2C2C=CCC12` (stereo unspecified), the EC50 was 23.8 µM (active) in assay [10] and 14.5 µM (active) in [11]. Besides, the AC50 in assay [9] was 16.8 µM (active).
On to `CCCN(CC(=O)Nc1ccccc1OC)C(=O)c1cccc(S(=O)(=O)NCc2ccccc2)c1`, for which the AC50 is 4.37 µM (active) in [12], 10.3 µM (active) in assay [6], 5.73 µM (active) in [7] and 39.2 µM (active) in assay [8].
For the compound `C=CCN(Cc1ccc(OC)c(OC)c1)C(=O)c1cc2cc(F)ccc2[nH]1`, the AC50 in [12] was 6.22 µM (active); in assay [6] it was 9.08 µM (active); in assay [7], 11.8 µM (active); in [8] it was 10.5 µM (active).
